{"source": "patent US20030171347A1", "about": "“Sigma receptor antagonists having anti-cocaine properties and uses thereof” (priority 1998, published 2003)", "key": {"Male, Swiss Webster mice [1]": {"system": "Male, Swiss Webster mice", "experiment": "Attenuation of cocaine-induced locomotor activity", "assay_type": "in vivo", "settings": "saline pre-treatment, cocaine 0-20 mg/kg i.p."}, "Male, Swiss Webster mice [2]": {"system": "Male, Swiss Webster mice", "experiment": "Dose response for the locomotor stimulatory effects of cocaine", "assay_type": "in vivo", "settings": "cocaine 0-20 mg/kg i.p., 30 min"}, "Male, Swiss Webster mice [3]": {"system": "Male, Swiss Webster mice", "experiment": "Shift of the cocaine convulsion dose curve by sigma receptor agonists", "settings": "saline pre-treatment, cocaine 0-60 mg/kg i.p."}, "Male, Swiss Webster mice [4]": {"system": "Male, Swiss Webster mice", "experiment": "Dose response for the behavioral toxic effects of cocaine (convulsions, death)"}, "[5]": {"settings": "after lethal dose of cocaine 125 mg/kg i.p."}, "[6]": {"settings": "cocaine alone 0-150 mg/kg i.p., observed 30 min"}}}
{"molecule": "COC(=O)[C@H]1[C@@H](OC(=O)c2ccccc2)C[C@@H]2CC[C@H]1N2C", "note": "[cocaine]", "values": [{"measurement": "ED50 for the locomotor stimulatory effects of cocaine", "setting": "Male, Swiss Webster mice [1]", "value": "6 mg/kg, i.p."}, {"measurement": "dose that produced the peak level of locomotor activity", "setting": "Male, Swiss Webster mice [2]", "value": "10 mg/kg, i.p."}, {"measurement": "ED50 for cocaine-induced convulsions", "setting": "Male, Swiss Webster mice [3]", "value": "58 mg/kg, i.p."}, {"measurement": "time at which mice are dead", "setting": "Male, Swiss Webster mice [4]; [5]", "value": "about 4.5 minutes"}, {"measurement": "time at which mice begin convulsing", "setting": "Male, Swiss Webster mice [4]; [5]", "value": "approximately 2 minutes"}, {"measurement": "ED50 for cocaine-induced convulsions", "setting": "Male, Swiss Webster mice [4]; [6]", "value": "59 mg/kg, i.p."}, {"measurement": "LD50 for cocaine-induced lethality", "setting": "Male, Swiss Webster mice [4]; [6]", "value": "108 mg/kg, i.p."}]}
